Measurements reported in patent US20090274642A1, “Hair Care Compositions for Preventing Oxidative Damage to Hair, Methods of Use, and Methods of Marketing Such Compositions” (priority 2008, published 2009).

Columns and labels:
Malassezia = test: Level of Malassezia after anti-dandruff actives delivered from shampoo; type: in vivo; conditions: 1% active in shampoo formulation, after two weeks of usage; FIG. 5
From the text: From left to right, the bars on the graph represent: 1% SeS2, 1% ZPT, 1% Climbazole, None (Control), 1% Platelet ZPT, 1SeS2, and 1% Ketoconazole.

Malassezia cells = test: Amplex ultra red (AMP dye) fluorescence, Malassezia cells on unsaturated lipophilic substrate; type: cell-based; conditions: pH 5.5; ethoxyquin added to the mixture; FIG. 2
[1] = Amplex assay, 10 μM H2O2 manually added to AMP dye; type: biochemical; conditions: 10 μM H2O2 added to AMP dye; pH=7.4; FIG. 3
Protocol: FIG. 3 is a graph showing the amplex fluorescence signal produced when 10 μM H2O2 is manually added to AMP dye.

In the case of `CC(C)(C)C(=O)C(Oc1ccc(Cl)cc1)n1ccnc1` (stereo not shown) [Climbazole, climbazole], the “level of Malassezia” value (Malassezia) is reported as “decreased level”.

With `CC(=O)N1CCN(c2ccc(OCC3COC(Cn4ccnc4)(c4ccc(Cl)cc4Cl)O3)cc2)CC1` (stereo not shown) [Ketoconazole, ketoconazole] the “level of Malassezia” value (Malassezia) was “decreased level”.

For `[O-][n+]1ccccc1[S-].[O-][n+]1ccccc1[S-].[Zn+2]` [Platelet ZPT], the “level of Malassezia” value (Malassezia) was “decreased level”.

In the case of `S=[Se]=S` [SeS2, selenium sulfide], the “level of Malassezia” value (Malassezia) is reported as “decreased level”.

With `[O-]n1ccccc1=S.[O-]n1ccccc1=S.[Zn+2]` [ZPT, zinc salt of 1-hydroxy-2-pyridinethione] the “level of Malassezia” value (Malassezia) was “decreased level”.

In the case of `CCOc1ccc2c(c1)C(C)=CC(C)(C)N2` [ethoxyquin], the “fluorescence signal due to the action of Malassezia on substrate” value (Malassezia cells) is reported as “quenched” and the “amplex fluorescence signal produced by H2O2” value [1] is reported as “quenched”.
